Assay results reported in US5744452A, “γ-L-glutamyl containing immunomodulator compounds and methods therewith” (Wei; Edward T., priority 1995, dated 1998).

How the values were obtained:
[1] = test system: patients with prostatitis caused by Chlamydian infection; experiment: Trial in prostatitis caused by Chlamydian infection; assay type: in vivo, human; conditions: fourteen treated, 30 control patients
Method: In addition to these studies, a trial was conducted using Bestim for the treatment of prostatitis caused by Chlamydian infection. Fourteen patients were treated with Bestim with 30 control patients.

viral hepatitis = experiment: Clinical trials in viral hepatitis; assay type: in vivo, human; conditions: trials in progress
[2] = test system: patients with generalized surgical infection; experiment: Study in patients with generalized surgical infection; assay type: in vivo, human; conditions: for Adhesion (%) / Blast transformation PHA / Blast transformation spont / CD3 (%) / CD4 (%) / CD4/CD8 / CD8 (%) / CD16 (%) / CD72 (%) / Chemilumin luminol (induced) / Chemilumin luminol (spontaneous) / IL-1 production LPS induced / IL-1 production spontaneous / IgA / IgG / IgM / NBT test induced / NBT test spontaneous / TNF production spontaneous / TNF prpoduction LPS induced: surgical infection; for Alanine aminotransferase / Albumin / Asparagine aminotransferase / Band neutrophils (%) / Bilirubin / Creatinin / Hemoglobin / Mature neutrophils (%) / Monocytes (%) / Plasma protein / Urea: surgical patients
Method: Preliminary studies were conducted to characterize the immunomodulatory properties of Bestim in human subjects. The protocol for the human subjects studies were reviewed and approved by a Hospital Committee (Moscow Hospital N-24) and informed consent was obtained from all subjects. All 62 patients received by intramuscular injection 0.1 mg of Bestim dissolved in 1.5 to 2.0 ml of sterile saline, one injection per day for 5 days. Patients participating in the clinical trials were from 2 groups:
The second group consisted of 28 patients with generalized surgical infection. Bestim was given together with standard antibiotic therapy.
Laboratory measurements (data in Table 8 to 10) were performed one day before and compared to values obtained three days after injection of Bestim.

mice = experiment: Acute toxicity, single intramuscular dose, mice; assay type: in vivo
Method: (§1) To illustrate this point and in preparation for clinical studies, acute and sub-acute toxicity studies were conducted in animals with Bestim according to conditions of good-laboratory practices. Bestim, prepared as a sterile lyophitized powder in ampoules, was dissolved in sterile 0.9% NaCl solution and injected intramuscularly in all experiments.
(§2) Acute toxicity: Rodents (mice and rats) and dogs were randomized into groups of equal numbers of males and females. Animals were inspected daily for 14 days after a single dose of Bestim (intramuscular):
(§3) Body weight, overall appearance and behavior were evaluated each day and, at the end of two weeks, macroscopic and histopathological examinations of the internal organs (heart, lungs, pleural and peritoneal cavities, muscles, stomach, small and large intestine, liver, spleen, pancreas, kidneys, bladder, thyroid, brain, skin and testes/ovaries) of all animals were conducted.

aminopeptidases = experiment: Degradation by aminopeptidases; assay type: in vitro ADME
patient with sepsis = experiment: Case History 2: immunodeficiency caused by sepsis (Patient B); assay type: in vivo, human
Method: Patient B was in the clinic with a diagnosis of sepsis. Immunodeficiency was confirmed by laboratory tests. Bestim was administered in the standard 5 daily intramuscular doses of 0.1 mg.

rats [3] = experiment: Acute toxicity, single intramuscular dose, rats; assay type: in vivo; conditions: single 500.0 mg/kg intramuscular, 14 days
Method: as §1, §2, §3

rats [4] = experiment: Subacute toxicity, repeated intramuscular injection, rats; assay type: in vivo
Method: as §1
Subacute Toxicity Studies: In a second set of experiments, Bestim was administered for longer durations, accordingly:
rats: 1 mg/kg and 100 mg/kg, administered intramuscularly daily for 3 months and for 6 months

murine thymocytes = experiment: Murine thymocyte differentiation after intraperitoneal injection; assay type: in vivo, CBA mice; conditions: for Percent of thymocytes expressing L3T4 / Percent of thymocytes expressing Lyt2 / Percent of thymocytes expressing Thy-1: 24 hours
Method: Bestim was injected into 3-month old CBA mice at doses ranging from 10 ng/kg to 100 μg/kg intraperitoneally. Mice were killed by cervical dislocation 24 hours after injection, the thymus gland removed, and the cells isolated by centrifugation and washed in RPMI-1640 medium. Expression of surface differentiation antigens were measured using monoclonal antibodies to L3T4 (T-helper marker), Lyt 2 (T-cytotoxic marker) and Thy-1 (common T-lymphocyte marker) molecules in a cytotoxicity assay using complement-dependent cell lysis (Terasaki et al., 1972). Dead cells were counted microscopically after eosin staining.

[5] = Bestim combined with conventional methods
[6] = mice, single 5000.0 mg/kg intramuscular, 14 days

N[C@@H](CCC(=O)N[C@@H](Cc1c[nH]c2ccccc12)C(=O)O)C(=O)O [Bestim, γ-L-glutamyl-L-tryptophan]
inflammation in the prostate [1]: inflammation in the prostate was ameliorated | signs and symptoms of viral hepatitis (viral hepatitis): ameliorates the signs and symptoms of viral hepatitis | clinical improvement [2, 5]: more rapid clinical improvement | duration of the patient's stay in the clinic [2, 5]: decreased the duration of the patient's stay in the clinic | Adhesion (%) ([2]; Bestim After): 41 ± 3% | Blast transformation PHA ([2]; Bestim After): 8935 ± 780 | Blast transformation spont ([2]; Bestim After): 541 ± 48 | CD3 (%) ([2]; Bestim After): 65 ± 5% | CD4 (%) ([2]; Bestim After): 40 ± 3% | CD4/CD8 ([2]; Bestim After): 1.92 ± 0.17 | CD8 (%) ([2]; Bestim After): 22 ± 2% | CD16 (%) ([2]; Bestim After): 10.7 ± 2.1% | CD72 (%) ([2]; Bestim After): 4.0 ± 0.5% | Chemilumin luminol (induced) ([2]; Bestim After): 5063 ± 431 | Chemilumin luminol (spontaneous) ([2]; Bestim After): 1427 ± 252 | IL-1 production LPS induced ([2]; Bestim After): 1601 ± 284 | IL-1 production spontaneous ([2]; Bestim After): 588 ± 201 | IgA ([2]; Bestim After): 2.2 ± 0.1 g/L | IgG ([2]; Bestim After): 9.7 ± 0.9 g/L | IgM ([2]; Bestim After): 1.2 ± 0.1 g/L | NBT test induced ([2]; Bestim After): 144 ± 17 | NBT test spontaneous ([2]; Bestim After): 77 ± 11 | TNF production spontaneous ([2]; Bestim After): 286 ± 27 | TNF prpoduction LPS induced ([2]; Bestim After): 338 ± 81 | Adhesion (%) ([2]; Bestim Before): 32 ± 3% | Blast transformation PHA ([2]; Bestim Before): 4563 ± 524 | Blast transformation spont ([2]; Bestim Before): 435 ± 53 | CD3 (%) ([2]; Bestim Before): 35 ± 5% | CD4 (%) ([2]; Bestim Before): 25 ± 4% | CD4/CD8 ([2]; Bestim Before): 2.09 ± 0.30 | CD8 (%) ([2]; Bestim Before): 15 ± 2% | CD16 (%) ([2]; Bestim Before): 6.2 ± 1.1% | CD72 (%) ([2]; Bestim Before): 4.1 ± 0.6% | Chemilumin luminol (induced) ([2]; Bestim Before): 2943 ± 307 | Chemilumin luminol (spontaneous) ([2]; Bestim Before): 1008 ± 90 | IL-1 production LPS induced ([2]; Bestim Before): 1014 ± 157 | IL-1 production spontaneous ([2]; Bestim Before): 481 ± 166 | IgA ([2]; Bestim Before): 2.4 ± 0.4 g/L | IgG ([2]; Bestim Before): 10.6 ± 1.5 g/L | IgM ([2]; Bestim Before): 1.2 ± 0.2 g/L | NBT test induced ([2]; Bestim Before): 111 ± 15 | NBT test spontaneous ([2]; Bestim Before): 79 ± 12 | TNF production spontaneous ([2]; Bestim Before): 134 ± 55 | TNF prpoduction LPS induced ([2]; Bestim Before): 370 ± 64 | Alanine aminotransferase ([2]; Bestim After): 18 ± 3 IU/L | Albumin ([2]; Bestim After): 40 ± 2 g/L | Asparagine aminotransferase ([2]; Bestim After): 17 ± 3 IU/L | Band neutrophils (%) ([2]; Bestim After): 7 ± 1.6% | Bilirubin ([2]; Bestim After): 7 ± 1 μM/L | Creatinin ([2]; Bestim After): 98 ± 4 μM/L | Hemoglobin ([2]; Bestim After): 101 ± 4 g/L | Mature neutrophils (%) ([2]; Bestim After): 70 ± 1% | Monocytes (%) ([2]; Bestim After): 3.6 ± 0.7% | Plasma protein ([2]; Bestim After): 73 ± 3 g/L | Urea ([2]; Bestim After): 4.0 ± 0.4 mM/L | Alanine aminotransferase ([2]; Bestim Before): 29 ± 7 IU/L | Albumin ([2]; Bestim Before): 38 ± 2 g/L | Asparagine aminotransferase ([2]; Bestim Before): 30 ± 9 IU/L | Band neutrophils (%) ([2]; Bestim Before): 12 ± 2% | Bilirubin ([2]; Bestim Before): 10 ± 1 μM/L | Creatinin ([2]; Bestim Before): 117 ± 7 μM/L | Hemoglobin ([2]; Bestim Before): 98 ± 4 g/L | Mature neutrophils (%) ([2]; Bestim Before): 76 ± 2% | Monocytes (%) ([2]; Bestim Before): 3.2 ± 0.5% | Plasma protein ([2]; Bestim Before): 70 ± 3 g/L | Urea ([2]; Bestim Before): 5.5 ± 0.3 mM/L | deaths (mice; [6]): No deaths were observed | general appearance, behavior, body weight, hematological, biochemical and physiological indices, macroscopic and histopathological examination of internal organs (mice; [6]): all within normal limits | tested dose relative to expected doses for therapeutic trials (mice; single administration): ~5,000,000 fold | activity of aminopeptidases against the compound (aminopeptidases): not active | Lymphocytes (patient with sepsis; After Bestim Therapy): 1370 per mm^3 | T-Lymphocytes (CD3) (patient with sepsis; After Bestim Therapy): 75% | T-helper lymphocytes (CD4) (patient with sepsis; After Bestim Therapy): 50% | White blood cells (patient with sepsis; After Bestim Therapy (5 daily i.m. 0.1 mg)): 9.8 × 10^3 per mm^3 | Lymphocytes (patient with sepsis; Before Therapy): 560 per mm^3 | T-Lymphocytes (CD3) (patient with sepsis; Before Therapy): 23% | T-helper lymphocytes (CD4) (patient with sepsis; Before Therapy): 11% | White blood cells (patient with sepsis; Before Therapy): 10.2 × 10^3 per mm^3 | deaths (rats [3]): No deaths were observed | general appearance, behavior, body weight, hematological, biochemical and physiological indices, macroscopic and histopathological examination of internal organs (rats [3]): all within normal limits | morphological appearance of all organs, macroscopic and histological (rats [4]; rats, 1 and 100 mg/kg i.m. daily for 3 and 6 months): normal | body weight (rats [4]; rats, both doses (1 and 100 mg/kg i.m. daily)): slight increase in body weight | tested dose relative to expected doses for therapeutic trials (rats [4]; repeated administration): ~100 fold | Percent of thymocytes expressing L3T4 (murine thymocytes; 0.01 μg/kg i.p.): 40 ± 8% | Percent of thymocytes expressing Lyt2 (murine thymocytes; 0.01 μg/kg i.p.): 45 ± 5% | Percent of thymocytes expressing Thy-1 (murine thymocytes; 0.01 μg/kg i.p.): 95 ± 3% | Percent of thymocytes expressing L3T4 (murine thymocytes; 0.1 μg/kg i.p.): 55 ± 1% | Percent of thymocytes expressing Lyt2 (murine thymocytes; 0.1 μg/kg i.p.): 44 ± 2% | Percent of thymocytes expressing Thy-1 (murine thymocytes; 0.1 μg/kg i.p.): 89 ± 2% | Percent of thymocytes expressing L3T4 (murine thymocytes; 1 μg/kg i.p.): 54 ± 1% | Percent of thymocytes expressing Lyt2 (murine thymocytes; 1 μg/kg i.p.): 46 ± 1% | Percent of thymocytes expressing Thy-1 (murine thymocytes; 1 μg/kg i.p.): 91 ± 1% | Percent of thymocytes expressing L3T4 (murine thymocytes; 10 μg/kg i.p.): 64 ± 1% | Percent of thymocytes expressing Lyt2 (murine thymocytes; 10 μg/kg i.p.): 47 ± 2% | Percent of thymocytes expressing Thy-1 (murine thymocytes; 10 μg/kg i.p.): 90 ± 1% | Percent of thymocytes expressing L3T4 (murine thymocytes; 100 μg/kg i.p.): 70 ± 1% | Percent of thymocytes expressing Lyt2 (murine thymocytes; 100 μg/kg i.p.): 48 ± 1% | Percent of thymocytes expressing Thy-1 (murine thymocytes; 100 μg/kg i.p.): 91 ± 0% | T-lymphocyte subset induced to differentiate in murine thymus (murine thymocytes; conclusion from Table 3): preferentially induces differentiation of a subset of T-helper lymphocytes
